The results in this text go back to patent US11091497B2, “Pyrano[3,4-b]pyrazine kappa opioid receptor ligands for treating addiction, pruritus, pain, and inflammation” (The Rockefeller University, priority 2017, dated 2021).

Assay [1] has as its target T1, human kappa opioid receptors (Homo sapiens, UniProt P41145).
T1 construct: expressed in transfected cells; host or cells: U2OS
As to the kind of experiment: [35S]GTPγS stimulation, membranes from U2OS cells. In kind it is biochemical. The note with it: for Emax: read-out: GTPγS stimulation % efficacy. The protocol: Membranes from cells stably expressing kappa, mu or delta opioid receptor constructs (PathHunter U2OS hOPRK1, CHO-K1 rOPRM1 and CHO-K1 OPRD1 β-arrestin cell line, DiscoverX, Fremont, Calif., USA) were used. Cells were scraped from tissue culture plates, homogenized with a tissue tearor homogenizer in membrane buffer (10 mM Tris, 100 mM NaCl, and 1 mM EDTA; pH 7.4), and centrifuged at 20,000 g for 30 minutes at 4° C. and frozen at −80° C. until use. Prior to use, the pellets were resuspended in binding buffer (50 mm Tris, 100 mm NaCl, pH 7.4), homogenized with a dounce homogenizer and […] incubated with 1.0 nM of the appropriate tritiated ligand ([^3H]U69,593, [^3H]DAMGO or [^3H]DPDPE for kappa, mu or delta binding, respectively) and the appropriate concentration of compound for 60 minutes at 30° C. Membranes with bound tritiated ligand were collected on Whatman GF/B filter paper (Brandel, Gaithersburg, Md., USA) utilizing a Brandel harvester. Bound tritiated ligand was quantified using a TriCarb-2900TR scintillation counter (Packard, Downers Grove, Ill., USA) following addition of 4 ml ReadySafe scintillation fluid (Beckman Coulter, Indianapolis, Ind., USA). Compiled data for each compound was normalized to the maximal binding in the absence of compound, with non-specific binding subtracted. Curve fitting was done in Microcal Origin 17.0 software using logistic sigmoidal fit, to determine IC50. GTPgammaS Membranes from U2OS cells stably expressing human kappa opioid receptors were used. Cells were scraped from tissue culture plates, homogenized with a tissue tearor homogenizer in membrane buffer (10 mM Tris, 100 mM NaCl, and 1 mM EDTA; pH 7.4), and centrifuged at 20,000 g for 30 minutes at 4° C. and frozen at −80° C. until use. Prior to use, the pellets were resuspended in assay buffer (50 mm Tris, 100 mm NaCl, 5 mM MgCl2, and 1 mM EDTA; pH 7.4) and homogenized with a dounce homogenizer and 50 μg incubated with 0.1 nM [35 S]GTPγS, 10 nM GDP, and the appropriate concentration of agonist for 20 minutes at 30° C. To test inhibition, all samples were incubated with 100 nM U69,593 as well as the appropriate concentration of compound. Membranes with bound [35 S]GTPγS were collected on Whatman GF/B filter paper (Brandel, Gaithersburg, Md., USA) utilizing a Brandel harvester. Bound [35 S]GTPγS was quantified using a TriCarb-2900TR scintillation counter (Packard, Downers Grove, Ill., USA) following addition of 4 mL ReadySafe scintillation fluid (Beckman Coulter, Indianapolis, Ind., USA). […] For each compound, curve fitting was done in Microcal Origin 17.0 software using logistic sigmoidal fit, to determine EC50 and maximal percent stimulation, which in turn was normalized to the maximal percent stimulation of the test full agonist compound U69,593 to determine % efficacy. β2-Arrestin Experiments were conducted using the PathHunter Detection Kit obtained from DiscoverX. Cells stably expressing kappa, mu or delta opioid receptor constructs (PathHunter U2OS hOPRK1, CHO-K1 rOPRM1 and CHO-K1 OPRD1 β-arrestin cell line, DiscoverX, Fremont, Calif., USA) were plated in 96- or 384-well plates. Cells were stimulated with the compounds for 90 minutes at 37° C. To test inhibition, all samples were incubated with 100 nM U69,593 as well as the appropriate concentration of compound. Cells were then incubated for 60 minutes in the presence of galoctosidase substrate, yielding chemiluminescent product. Chemiluminescence was measured using a Synergy Neo microplate reader (BioTek, Winooski, Vt., USA). Antagonism assays were done in the same manner, in the presence of 300 nM U69,593, 1 μM DAMGO or 1 μM DPDPE for KOP-R, MOP-R or DOP-R assays, respectively.

The target in assay [2] is T2, kappa opioid receptor (PathHunter U2OS hOPRK1 membranes) (Homo sapiens, UniProt P41145).
T2 construct: host or cells: U2OS (PathHunter U2OS hOPRK1 β-arrestin cell line)
T2 sequence (P41145 whole entry): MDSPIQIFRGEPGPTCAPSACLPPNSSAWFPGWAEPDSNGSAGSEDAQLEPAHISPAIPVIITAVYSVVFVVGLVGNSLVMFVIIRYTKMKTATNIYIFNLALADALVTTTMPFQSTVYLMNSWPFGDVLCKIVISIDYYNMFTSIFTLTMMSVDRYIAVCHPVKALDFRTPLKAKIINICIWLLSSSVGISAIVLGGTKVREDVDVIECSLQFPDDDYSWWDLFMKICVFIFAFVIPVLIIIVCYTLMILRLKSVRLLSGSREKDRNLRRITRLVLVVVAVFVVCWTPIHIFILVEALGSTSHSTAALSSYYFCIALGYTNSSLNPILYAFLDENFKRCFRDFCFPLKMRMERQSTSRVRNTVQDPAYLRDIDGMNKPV
As to the kind of experiment: Tritiated U69,593 binding for KOP-R membranes. The procedure: Tritiated U69,593 binding for KOP-R membranes; tritiated DAMGO binding for MOP-R membranes; and tritiated DPDPE binding for DOP-R membranes:
(§1) Membranes from cells stably expressing kappa, mu or delta opioid receptor constructs (PathHunter U2OS hOPRK1, CHO-K1 rOPRM1 and CHO-K1 OPRD1 β-arrestin cell line, DiscoverX, Fremont, Calif., USA) were used. Cells were scraped from tissue culture plates, homogenized with a tissue tearor homogenizer in membrane buffer (10 mM Tris, 100 mM NaCl, and 1 mM EDTA; pH 7.4), and centrifuged at 20,000 g for 30 minutes at 4° C. and frozen at −80° C. until use. Prior to use, the pellets were resuspended in binding buffer (50 mm Tris, 100 mm NaCl, pH 7.4), homogenized with a dounce homogenizer and […] incubated with 1.0 nM of the appropriate tritiated ligand ([^3H]U69,593, [^3H]DAMGO or [^3H]DPDPE for kappa, mu or delta binding, respectively) and the appropriate concentration of compound for 60 minutes at 30° C. Membranes with bound tritiated ligand were collected on Whatman GF/B filter paper (Brandel, Gaithersburg, Md., USA) utilizing a Brandel harvester. Bound tritiated ligand was quantified using a TriCarb-2900TR scintillation counter (Packard, Downers Grove, Ill., USA) following addition of 4 ml ReadySafe scintillation fluid (Beckman Coulter, Indianapolis, Ind., USA). Compiled data for each compound was normalized to the maximal binding in the absence of compound, with non-specific binding subtracted. Curve fitting was done in Microcal Origin 17.0 software using logistic sigmoidal fit, to determine IC50. GTPgammaS Membranes from U2OS cells stably expressing human kappa opioid receptors were used. Cells were scraped from tissue culture plates, homogenized with a tissue tearor homogenizer in membrane buffer (10 mM Tris, 100 mM NaCl, and 1 mM EDTA; pH 7.4), and centrifuged at 20,000 g for 30 minutes at 4° C. and frozen at −80° C. until use. Prior to use, the pellets were resuspended in assay buffer (50 mm Tris, 100 mm NaCl, 5 mM MgCl2, and 1 mM EDTA; pH 7.4) and homogenized with a dounce homogenizer and 50 μg incubated with 0.1 nM [35 S]GTPγS, 10 nM GDP, and the appropriate concentration of agonist for 20 minutes at 30° C. To test inhibition, all samples were incubated with 100 nM U69,593 as well as the appropriate concentration of compound. Membranes with bound [35 S]GTPγS were collected on Whatman GF/B filter paper (Brandel, Gaithersburg, Md., USA) utilizing a Brandel harvester. Bound [35 S]GTPγS was quantified using a TriCarb-2900TR scintillation counter (Packard, Downers Grove, Ill., USA) following addition of 4 mL ReadySafe scintillation fluid (Beckman Coulter, Indianapolis, Ind., USA). […] NA indicates not applicable. For each compound, curve fitting was done in Microcal Origin 17.0 software using logistic sigmoidal fit, to determine EC50 and maximal percent stimulation, which in turn was normalized to the maximal percent stimulation of the test full agonist compound U69,593 to determine % efficacy. β2-Arrestin Experiments were conducted using the PathHunter Detection Kit obtained from DiscoverX. Cells stably expressing kappa, mu or delta opioid receptor constructs (PathHunter U2OS hOPRK1, CHO-K1 rOPRM1 and CHO-K1 OPRD1 β-arrestin cell line, DiscoverX, Fremont, Calif., USA) were plated in 96- or 384-well plates. Cells were stimulated with the compounds for 90 minutes at 37° C. To test inhibition, all samples were incubated with 100 nM U69,593 as well as the appropriate concentration of compound. Cells were then incubated for 60 minutes in the presence of galoctosidase substrate, yielding chemiluminescent product. Chemiluminescence was measured using a Synergy Neo microplate reader (BioTek, Winooski, Vt., USA). Antagonism assays were done in the same manner, in the presence of 300 nM U69,593, 1 μM DAMGO or 1 μM DPDPE for KOP-R, MOP-R or DOP-R assays, respectively. […] NA indicates not applicable. […]

In assay [3] the target is T3, kappa opioid receptor (PathHunter U2OS hOPRK1 β-arrestin cell line) (Homo sapiens, UniProt P41145).
T3 construct: host or cells: U2OS (PathHunter U2OS hOPRK1 β-arrestin cell line)
T3 sequence (P41145 whole entry): as above
As to the kind of experiment: β-arrestin coupling (PathHunter Detection Kit). The note with it: for Emax at 10 µM: U2OS; for β-arrestin coupling % efficacy: maximal, normalized to U69,593, No stim = no stimulation at highest dose tested, 10,000 nM. Format: cell-based. The procedure:
as §1

Where [4] appears, read: read-out: β-arrestin coupling % efficacy at 10 μM.
[5] abbreviates: read-out: β-arrestin coupling % efficacy.
Setting [6] is: 1.0 nM [3H]U69,593, 60 minutes at 30° C., read-out: Binding IC50.

Read-outs that look alike come from different tables or passages of the source.

T1 sequence (P41145 whole entry): as above

Turning to `CCCN1CCN(C(=O)Cc2ccc(Cl)c(Cl)c2)[C@H]2[C@H]1COC[C@@H]2N1CCCC1` (racemic) [Example 5A72], in assay [1], the EC50 is 12 nM and the Emax stood at 111%. In assay [2], the IC50 came out at 26 nM. The Emax at 10 µM in assay [3] (setting [4]) came out at 50%.
For `CS(=O)(=O)N1CCN(C(=O)Cc2ccc(Cl)c(Cl)c2)[C@H]2[C@H]1COC[C@@H]2N1CCCC1` (racemic) [Example 5A44], in assay [1], the EC50 stood at 6.7 nM and the Emax is 88%. Also, the IC50 in assay [2] is 19 nM. The concentration for a half-maximal effect (EC50) in assay [3] stood at 6200 nM. In addition, the Emax at 10 µM in assay [3] (setting [5]) was 55%.
In the case of `O=C(Cc1cccc(Cl)c1)N1CCN[C@@H]2COC[C@H](N3CCCC3)[C@H]21` (racemic) [Example 5A24], in assay [1], the half-maximal effective concentration (EC50) is 213 nM and the Emax was determined as 64%. The IC50 in assay [2] (setting [6]) turned out to be 251 nM. Besides, the “β-arrestin coupling % efficacy” value in assay [3] is reported as “No stim”.
With `O=C(Cc1cccc(Cl)c1)N1CCN[C@@H]2COC[C@H](N3CCCC3)[C@H]21` (single isomer, unassigned) [Example 5A24A], in assay [1], the EC50 stood at 384 nM and the Emax was 115%. Besides, the 50% inhibitory concentration (IC50) in assay [2] (setting [6]) came to 463 nM. In assay [3] (setting [4]), the Emax at 10 µM is 0%.
In the case of `O=C(Cc1ccc(Cl)c(Cl)c1)N1CCN(Cc2ccccc2)[C@H]2COC[C@@H](N3CCCC3)[C@@H]21` (single isomer, unassigned) [Example 5A53B], in assay [1], the concentration for a half-maximal effect (EC50) amounted to 4.8 nM and the Emax is 58%. Besides, the IC50 in assay [2] was 44 nM. Further, the Emax at 10 µM in assay [3] (setting [4]) worked out at 80%.
Turning to `O=C(Cc1ccc(Cl)c(Cl)c1)N1CCN(S(=O)(=O)C2CC2)[C@@H]2COC[C@H](N3CCCC3)[C@H]21` (single isomer, unassigned) [Example 5A52A], in assay [1], the EC50 worked out at 1.7 nM and the Emax turned out to be 119%. Further, the half-inhibitory concentration (IC50) in assay [2] is 3.6 nM. The Emax at 10 µM in assay [3] (setting [4]) turned out to be 60%.
In the same order, the values of `O=C(Cc1ccc(Cl)c(Cl)c1)N1CCN(Cc2ccccc2)[C@@H]2COC[C@H](N3CCCC3)[C@H]21` (single isomer, unassigned) [Example 5A53A] are 18 nM, 80%, 108 nM and 80%.
Consider `O=C(Cc1ccc(Cl)c(C(F)(F)F)c1)N1CCN[C@@H]2COC[C@H](N3CCCC3)[C@H]21` (racemic) [Example 5A46], for which, in assay [1], the EC50 came out at 6.3 nM and the Emax stood at 131%. In assay [2], the half-inhibitory concentration (IC50) was found to be 15 nM. Besides, the Emax at 10 µM in assay [3] (setting [4]) amounted to 100%.
Consider `O=C(Cc1ccc(Cl)c(Cl)c1)N1CCN(CC2CCC2)[C@@H]2COC[C@H](N3CCCC3)[C@H]21` (racemic) [Example 5A55], for which, in assay [1], the EC50 was 21 nM and the Emax was found to be 67%. For the same molecule, in assay [2], the IC50 was 57 nM. Moreover, the Emax at 10 µM in assay [3] (setting [4]) came to 40%.
With `O=C(Cc1ccc(C(F)(F)F)cc1)N1CCN[C@@H]2COC[C@H](N3CCCC3)[C@H]21` (racemic) [Example 5A49], in assay [1], the EC50 came out at 109 nM and the Emax stood at 69%. Further, the IC50 in assay [2] (setting [6]) stood at 102 nM. The EC50 in assay [3] stood at 11000 nM. In assay [3] (setting [5]), the Emax at 10 µM stood at 36%.
As to `CN(C)[C@H]1COC[C@H]2NCCN(C(=O)Cc3ccc(Cl)c(Cl)c3)[C@@H]21` (racemic) [Example 5A51], in assay [1], the half-maximal effective concentration (EC50) was determined as 108 nM and the Emax turned out to be 71%. For the same molecule, in assay [2] (setting [6]), the IC50 was 120 nM. Also, the “β-arrestin coupling % efficacy” value in assay [3] is reported as “No stim”.
For `O=C(Cc1ccc(Cl)c(Cl)c1)N1CCN(CC2CCC2)[C@@H]2COC[C@H](N3CCCC3)[C@H]21` (single isomer, unassigned) [Example 5A55A], in assay [1], the 50% effective concentration (EC50) worked out at 30 nM and the Emax amounted to 84%. The IC50 in assay [2] worked out at 94 nM. Moreover, in assay [3], the “β-arrestin coupling % efficacy” value is on record as “No stim”.
`O=C(Cc1ccc(Cl)c(Cl)c1)N1CCN(CC2CCC2)[C@H]2COC[C@@H](N3CCCC3)[C@@H]21` (single isomer, unassigned) [Example 5A55B]: in assay [1], the EC50 came out at 13 nM and the Emax is 62%. The IC50 in assay [2] amounted to 20 nM. Besides, the Emax at 10 µM in assay [3] (setting [4]) stood at 80%.
